Measured values: publication PMC10728248, “A Novel Near-Infrared Fluorescence Probe THK-565 Enables In Vivo Detection of Amyloid Deposits in Alzheimer’s Disease Mouse Model” (Molecular Imaging and Biology, 2023)

Target: T1, amyloid-β (Aβ1-40) fibrils (Homo sapiens, UniProt P05067)
T1 construct: gene APP; Aβ1-40, aggregated (fibrils)
Experiment: fluorescence saturation binding (ΔF at […] nm, fibrils vs soluble Aβ)

T1 sequence (P05067 672-711): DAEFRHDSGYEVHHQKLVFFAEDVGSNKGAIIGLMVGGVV

For Cc1ccc2c(c1)C(C)(C)C1(/C=C/C=C/c3ccc(N(C)C)cc3)NC(=O)CCN21 (stereo not shown) [THK-565, 10a-[(1E,3E)-4-(4-dimethylamino-phenyl)-buta-1,3-dienyl]-8,10,10-trimethyl-3,4,10,10a-tetrahydro-1H-pyrimido[1,2-a]indol-2-one], the Kd was 156 nM.
